Consider three molecules from ChEMBL document CHEMBL1132011, “The synthesis of ketomethylene pseudopeptide analogues of dipeptide aldehyde inhibitors of calpain” (Bioorg Med Chem Lett, 1999).

Non-standard residues stand in square brackets, D forms with d. Residues, ends and D or L forms follow the SMILES beside them. ξ: configuration not given here. *: point of attachment. ξF = NC(Cc1ccccc1)C(=O)O; Cbz = O=C(OCc1ccccc1)*

This experiment concerns the target T1, Calpain-1 catalytic subunit (Gallus gallus, UniProt P00789).
T1 sequence (P00789 whole entry): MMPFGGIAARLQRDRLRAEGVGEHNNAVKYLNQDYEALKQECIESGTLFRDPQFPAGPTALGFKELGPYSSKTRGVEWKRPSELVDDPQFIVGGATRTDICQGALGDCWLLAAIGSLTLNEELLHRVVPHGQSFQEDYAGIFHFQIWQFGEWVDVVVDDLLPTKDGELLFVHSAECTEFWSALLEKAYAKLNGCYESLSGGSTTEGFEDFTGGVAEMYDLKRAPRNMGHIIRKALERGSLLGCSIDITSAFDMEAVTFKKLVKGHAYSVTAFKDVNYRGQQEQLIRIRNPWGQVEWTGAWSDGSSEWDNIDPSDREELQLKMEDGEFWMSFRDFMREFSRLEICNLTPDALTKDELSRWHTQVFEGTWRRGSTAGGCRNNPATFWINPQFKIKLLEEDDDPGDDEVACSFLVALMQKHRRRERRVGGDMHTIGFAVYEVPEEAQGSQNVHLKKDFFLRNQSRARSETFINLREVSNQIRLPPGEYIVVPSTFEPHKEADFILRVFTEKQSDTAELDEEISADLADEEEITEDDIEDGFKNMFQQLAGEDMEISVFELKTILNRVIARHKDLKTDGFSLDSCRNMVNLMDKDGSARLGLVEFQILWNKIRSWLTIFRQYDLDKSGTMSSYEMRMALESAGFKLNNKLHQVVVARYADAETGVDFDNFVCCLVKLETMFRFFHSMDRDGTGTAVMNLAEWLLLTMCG
Description: Inhibitory activity against chicken gizzard smooth muscle calpain.
By Ki is commonly meant the equilibrium dissociation constant of an inhibitor or competing ligand from its target. Low readings indicate higher affinity, high ones lower affinity. As to `CC(C=O)CC(=O)[C@@H](NC(=O)OCc1ccccc1)C(C)C` (stereo partly drawn), the Ki was 45 µM.

On to `CC(C)[C@H](NC(=O)OCc1ccccc1)C(=O)C[C@H](C=O)Cc1ccccc1`, for which the Ki came out at 2.5 µM.

In turn, `CC(C)[C@H](NC(=O)OCc1ccccc1)C(=O)NC(C=O)Cc1ccccc1` (stereo partly drawn) (Cbz-Val-[ξF]-aldehyde) gave a Ki of 0.01 µM.
